Experimental data from the NIST ThermoML archive (doi:10.1021/acs.jced.8b00931).
± gives the expanded uncertainty stated by the source.

Legend:
[1] = Crystal; DSC
[2] = Molar enthalpy of transition or fusion; settings: Crystal; DSC

In the case of `Nc1cc([N+](=O)[O-])ccc1Cl` [2-chloro-5-nitroaniline], the Triple point temperature [1] is reported as 393.39 ± 1.2 K and the “Molar enthalpy of transition or fusion” value [2] is reported as 6.46 ± 0.232 kcal/mol.
